In patent publication US8273752B2, “Substituted imidazopyrimidines and triazolopyrimidines” (Bayer Intellectual Property GmbH, priority 2007, dated 2012):

Molecular target: T1, GSK3β (Homo sapiens, UniProt P49841)
T1 construct: purchased Upstate xy
Test: GSK3β biochemical in vitro assay (fluorescence, NADH-coupled)
Settings: 5 nM GSK3β, 40 μM substrate GSM, 50 μM ATP, 30° C., 2 hours
Method: The inhibitory activity of active substances is determined in a biochemical assay. The ingredients required for this purpose are mixed in a black 384-well microtitre plate with transparent base (from Greiner, catalogue number 781092). The requirements in this connection for each well of the 384-well microtitre plate are 5 nM GSK3β (from Upstate, catalogue number xy), 40 μM GSK3B substrate GSM (sequence H-RRRPASVPPSPSLSRHS-(pS)-HQRR, from Upstate, catalogue number 2-533), 30 μM nicotinamide adenine dinucleotide NADH (Roche Diagnostics, catalogue number 10107735), 50 μM adenosine triphosphate ATP (from Sigma, catalogue number A7966), and 2 mM phosphoenolpyruvate (from Roche, catalogue number 128112). The required reaction buffer in which the biochemical reaction takes place consists of 50 mM Trizma hydrochloride tris-HCl pH: 7.5 (from Sigma, catalogue number T3253), 5 mM magnesium chloride MgCl2 (from Sigma, catalogue number M8266), 0.2 mM DL-dithiothreitol DTT (from Sigma, catalogue number D9779), 2 mM ethylenediaminethertetraacid EDTA (from Sigma, catalogue number E6758), 0.01% Triton X-100 (from Sigma, catalogue number T8787) and 0.05% bovine serum albumin BSA (from Sigma, catalogue number B4287).
Active substances are dissolved in dimethyl sulphoxide DMSO (from Sigma, catalogue number D8418) in a concentration of 10 mM. Active substances are added in serial concentrations of 10 μM, 1 μM, 0.1 μM, 0.01 μM, 0.001 μM, 0.0001 μM, 0.00001 μM, 0.000001 μM to the mixtures of the biochemical reaction. As control, dimethyl sulphoxide is added instead of substance in a final concentration of 0.1%.
The reaction is incubated at 30° C. for 2 hours and then the resulting fluorescence is measured in a Tecan Safire-XFLUOR4 instrument, version V4.50 (serial number 12901300283) with the specifications: measurement mode—fluorescence measured from below, extinction wavelength 340 nm, emission wavelength 465 nm, slit width extinction 5 nm, slit width emission 5 nm, gain mode 120, delay 0 μs, number of light flashes per measurement 3, and an integration time of 40 μs.
The activity of the active substances is calculated in relation to these 0% and 100%.

T1 sequence (P49841 whole entry, species assumed): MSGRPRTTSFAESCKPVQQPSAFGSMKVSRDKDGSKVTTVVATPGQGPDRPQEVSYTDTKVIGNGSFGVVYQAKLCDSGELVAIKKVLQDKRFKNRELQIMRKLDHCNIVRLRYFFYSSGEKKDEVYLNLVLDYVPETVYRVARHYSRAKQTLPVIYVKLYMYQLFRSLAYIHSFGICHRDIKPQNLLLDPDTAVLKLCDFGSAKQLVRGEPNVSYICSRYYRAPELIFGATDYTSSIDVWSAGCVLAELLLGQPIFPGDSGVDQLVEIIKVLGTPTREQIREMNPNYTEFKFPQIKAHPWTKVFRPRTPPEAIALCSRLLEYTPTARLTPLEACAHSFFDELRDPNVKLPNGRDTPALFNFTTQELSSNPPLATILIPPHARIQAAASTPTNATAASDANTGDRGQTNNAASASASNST

Nc1nc(NCCNc2nc(-c3ccc(Cl)cc3Cl)cc3nc(CN4CCOCC4)nn23)ccc1C(=O)C(F)(F)F [Example 194]
IC50: 0.7 nM

N#Cc1sc(NC2CCCN(c3nc(-c4ccc(Cl)cc4Cl)cc4ncnn34)C2)nc1N (stereo not drawn) [Example 202]
IC50: 5 nM

Nc1nc(NCCNc2nc(-c3ccc(Cl)cc3Cl)cc3ncnn23)sc1C(=O)C(F)(F)F [Example 203]
IC50: 3 nM
